Peptide text beside a SMILES is read from it.
Experiments:
[1] = tested on: human erythrocytes; experiment: Hemolysis assay; assay type: cell-based; settings: 1 h
Outline: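 Washed human erythrocytes (5% v/v in PBS) were mixed with peptide plated as a 200–6.25 μM series, in triplicate, for 1 h at 37 °C. Released haemoglobin in the supernatant was read at 540 nm, scaled to 0.1% Triton X-100 (100%) and PBS (0%). HC50 came from a 3-parameter log-logistic fit.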

[2] = tested on: noncancer HDMEC primary cells (human dermal microvascular endothelial cells); experiment: Cell viability assay (MTT); assay type: cell-based; settings: Table S2; noncancer primary cells; MTT, 24 h; mean ± sd; N = 2 independent measurements with six technical replicates each (Figs S6-S8)
Outline: (§1)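 Viability by MTT: 10^4 cells/well exposed 24 h to 2-fold peptide dilutions from 100 μM in DMEM, then 1 h with 0.5 mg mL−1 MTT; absorbance at 540 nm relative to peptide-free medium as 100% survival. EC50 from a 3-parameter log-logistic fit.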

[3] = tested on: A549 lung adenocarcinoma cell line; experiment: Cell viability assay (MTT); assay type: cell-based, human; settings: Table S2; MTT, 24 h; mean ± sd; N = 2 independent measurements with six technical replicates each (Figs S6-S8); read-out: A549 EC50 /µM
Outline: as §1

[4] = tested on: MCF7 breast adenocarcinoma cell line; experiment: Cell viability assay (MTT); assay type: cell-based, human; settings: Table S2, 24 h, mean ± sd, N = 2 independent measurements with six technical replicates each (Figs S6-S8)
Outline: as §1

| SMILES | Eryhtr. HC50 /µM ([1]; red cells of human) | EC50 [2] | EC50 [3] | EC50 [4] | Eryhtr. HC50 /µM ([1]; Table S2, 5% v/v erythrocytes in PBS added 1:1, peptide 200 to 6.25 µM, 37°C, absorbance 540 nm, 0.1% Triton-X-100 = 100%, mean ± sd, N = 2 independent, three technical replicates) |
| --- | --- | --- | --- | --- | --- |
| CC[C@H](C)[C@H](NC(=O)[C@H](CCCCN)NC(=O)[C@@H]1CCCN1C(=O)[C@H](Cc1c[nH]c2ccccc12)NC(=O)[C@@H](NC(=O)[C@H](CCC(=O)O)NC(=O)[C@H](Cc1c[nH]c2ccccc12)NC(=O)[C@H](Cc1ccccc1)NC(=O)[C@H](CCCCN)NC(=O)[C@H](CCCCN)NC(=O)[C@@H](NC(=O)[C@@H](NC(=O)[C@@H](NC(=O)[C@H](CCCCN)NC(=O)[C@H](CC(C)C)NC(=O)[C@H](CCC(N)=O)NC(=O)[C@H](CCCNC(=N)N)NC(=O)[C@@H](NC(=O)[C@H](CCCNC(=N)N)NC(=O)[C@@H](N)Cc1c[nH]cn1)[C@@H](C)CC)[C@@H](C)O)[C@@H](C)O)[C@@H](C)CC)[C@@H](C)CC)C(N)=O [Off10] (H-HRIRQLKTTIKKFWEIWPKI-NH2) | > 200 µM | 58.1 ± 0.3 µM | 83 ± 11 µM | 56 ± 5 µM | – |
| CC[C@H](C)[C@H](NC(=O)[C@H](CC(C)C)NC(=O)[C@@H](N)Cc1c[nH]cn1)C(=O)N[C@@H](Cc1c[nH]cn1)C(=O)N[C@@H](CCCNC(=N)N)C(=O)N[C@@H](CC(C)C)C(=O)N[C@@H](Cc1c[nH]cn1)C(=O)N[C@H](C(=O)N[C@@H](Cc1ccc(O)cc1)C(=O)N[C@@H](Cc1c[nH]c2ccccc12)C(=O)N[C@@H](Cc1c[nH]cn1)C(=O)N[C@@H](CCCCN)C(=O)N1CCC[C@H]1C(=O)N[C@@H](Cc1c[nH]c2ccccc12)C(=O)N[C@@H](Cc1c[nH]cn1)C(=O)N[C@@H](Cc1ccc(O)cc1)C(=O)N[C@@H](CC(C)C)C(=O)NCC(=O)N[C@@H](CCCCN)C(=O)N[C@@H](CC(C)C)C(N)=O)[C@@H](C)O [Off2.9] (H-HLIHRLHTYWHKPWHYLGKL-NH2) | > 200 µM | 135 ± 2 µM | > 100 µM | > 100 µM | – |
| CC[C@H](C)[C@H](NC(=O)[C@@H]1CCCN1C(=O)[C@H](Cc1c[nH]cn1)NC(=O)[C@H](Cc1ccccc1)NC(=O)[C@H](CCCCN)NC(=O)[C@H](CCCCN)NC(=O)[C@H](Cc1ccccc1)NC(=O)[C@@H](NC(=O)[C@@H](N)CCCNC(=N)N)C(C)C)C(=O)N[C@@H](Cc1ccc(O)cc1)C(=O)N[C@@H](Cc1c[nH]cn1)C(=O)N[C@@H](CCCNC(=N)N)C(=O)N[C@H](C(=O)N[C@@H](Cc1c[nH]c2ccccc12)C(=O)N[C@@H](CCCNC(=N)N)C(=O)N[C@@H](CC(C)C)C(=O)N[C@@H](Cc1c[nH]c2ccccc12)C(=O)NCC(=O)N[C@@H](Cc1c[nH]cn1)C(=O)N[C@@H](CC(C)C)C(N)=O)C(C)C [Off1] (H-RVFKKFHPIYHRVWRLWGHL-NH2) | > 200 µM | 56 ± 7 µM | 49 ± 2 µM | 27.4 ± 0.5 µM | – |
| CC[C@H](C)[C@H](NC(=O)[C@H](CCCNC(=N)N)NC(=O)[C@H](Cc1ccccc1)NC(=O)[C@H](CC(C)C)NC(=O)[C@H](CCCCN)NC(=O)[C@H](CCCCN)NC(=O)[C@H](Cc1c[nH]c2ccccc12)NC(=O)[C@H](Cc1ccc(O)cc1)NC(=O)[C@@H](NC(=O)[C@H](CCCCN)NC(=O)[C@@H](NC(=O)[C@H](CCCCN)NC(=O)[C@H](CCCCN)NC(=O)[C@H](Cc1ccccc1)NC(=O)[C@@H](NC(=O)[C@@H](N)Cc1c[nH]cn1)[C@@H](C)CC)C(C)C)[C@@H](C)O)C(=O)N[C@@H](CC(C)C)C(=O)NCC(=O)N[C@@H](CCCNC(=N)N)C(=O)N[C@@H](Cc1ccccc1)C(N)=O [Off6] (H-HIFKKVKTYWKKLFRILGRF-NH2) | 16 ± 2 µM | 5 ± 0.7 µM | 18 ± 2 µM | 12 ± 3 µM | – |
| CC[C@H](C)[C@H](NC(=O)[C@H](CCCCN)NC(=O)[C@H](CCCCN)NC(=O)[C@@H](NC(=O)[C@@H](NC(=O)[C@@H](N)CCC(N)=O)[C@@H](C)CC)[C@@H](C)CC)C(=O)N[C@@H](CCCNC(=N)N)C(=O)N[C@H](C(=O)N[C@@H](Cc1c[nH]c2ccccc12)C(=O)N[C@@H](Cc1ccc(O)cc1)C(=O)N[C@@H](CCCNC(=N)N)C(=O)N[C@@H](CCCCN)C(=O)N[C@@H](C)C(=O)N[C@@H](Cc1c[nH]c2ccccc12)C(=O)N[C@@H](Cc1c[nH]cn1)C(=O)N[C@H](C(=O)N[C@@H](CC(C)C)C(=O)NCC(=O)N[C@@H](CCCCN)C(=O)N[C@H](C(N)=O)C(C)C)C(C)C)[C@@H](C)O [Off2.2] (H-QIIKKIRTWYRKAWHVLGKV-NH2) | – | 42 ± 7 µM | 20 ± 1 µM | 11.6 ± 0.8 µM | > 200 µM |
| CC(C)C[C@H](NC(=O)[C@H](Cc1c[nH]cn1)NC(=O)[C@H](Cc1c[nH]c2ccccc12)NC(=O)[C@H](C)NC(=O)[C@H](CCCCN)NC(=O)[C@H](CCCNC(=N)N)NC(=O)[C@H](Cc1ccc(O)cc1)NC(=O)[C@H](Cc1c[nH]c2ccccc12)NC(=O)[C@@H](NC(=O)[C@H](CCCNC(=N)N)NC(=O)[C@@H](NC(=O)[C@H](CCCCN)NC(=O)[C@H](CCCCN)NC(=O)[C@H](CC(C)C)NC(=O)[C@H](CC(C)C)NC(=O)[C@@H](N)CCC(N)=O)C(C)C)[C@@H](C)O)C(=O)N[C@@H](Cc1ccc(O)cc1)C(=O)NCC(=O)N[C@@H](CCCCN)C(=O)N[C@H](C(N)=O)C(C)C [Off2.2.5] (H-QLLKKVRTWYRKAWHLYGKV-NH2) | > 200 µM | 27.2 ± 0.5 µM | 29.3 ± 0.9 µM | 16 ± 2 µM | – |
| CC[C@H](C)[C@H](NC(=O)[C@@H](N)CCCCN)C(=O)N[C@@H](Cc1ccccc1)C(=O)N[C@@H](CCCCN)C(=O)N[C@@H](CCCCN)C(=O)N[C@@H](Cc1ccccc1)C(=O)N[C@@H](CCCCN)C(=O)N[C@@H](CC(=O)O)C(=O)N[C@@H](Cc1c[nH]c2ccccc12)C(=O)N[C@@H](Cc1ccccc1)C(=O)N[C@@H](CCCCN)C(=O)N[C@@H](CCCCN)C(=O)N[C@@H](C)C(=O)N[C@@H](Cc1ccccc1)C(=O)N[C@@H](Cc1c[nH]cn1)C(=O)N[C@H](C(=O)N[C@@H](CC(C)C)C(=O)NCC(=O)N[C@@H](CCCCN)C(=O)N[C@H](C(N)=O)C(C)C)C(C)C [Off2.5] (H-KIFKKFKDWFKKAFHVLGKV-NH2) | > 100 µM | 22 ± 1 µM | 14.8 ± 0.7 µM | 10.4 ± 0.8 µM | – |
| CC[C@H](C)[C@H](NC(=O)[C@H](Cc1c[nH]cn1)NC(=O)[C@H](Cc1c[nH]c2ccccc12)NC(=O)[C@H](C)NC(=O)[C@H](CCCNC(=N)N)NC(=O)[C@H](CCCNC(=N)N)NC(=O)[C@H](CC(C)C)NC(=O)[C@H](Cc1c[nH]c2ccccc12)NC(=O)[C@@H](NC(=O)[C@H](CCCNC(=N)N)NC(=O)[C@@H](NC(=O)[C@H](CCCNC(=N)N)NC(=O)[C@H](CCCNC(=N)N)NC(=O)[C@H](CC(C)C)NC(=O)[C@H](Cc1ccc(O)cc1)NC(=O)[C@@H](N)CCC(N)=O)C(C)C)[C@@H](C)O)C(=O)N[C@@H](CC(C)C)C(=O)NCC(=O)N[C@@H](CCCCN)C(=O)N[C@H](C(N)=O)C(C)C [Off2.2.8] (H-QYLRRVRTWLRRAWHILGKV-NH2) | 21 ± 1 µM | 10.3 ± 0.3 µM | 16.5 ± 0.2 µM | 11 ± 0.2 µM | – |

— publication PMC6677754, “In silico design and optimization of selective membranolytic anticancer peptides” (Scientific Reports, 2019)
